Measurements taken from patent publication US20260200923A1, “HETEROCYCLIC COMPOUNDS TARGETING THE NUDT5 PROTEIN” (Oxford University Innovation Limited, priority 2022, published 2026).

Tests used:
[1] = biological target: T1, NUDT5 (Homo sapiens, UniProt Q9UKK9); assay: NUDT5 degradation by Western blot in HAP-1 cells; format: cell-based; parameters: endogenous in cells
Description: For Western blots, proteins were separated on polyacrylamide gels with SDS running buffer (50 mM Tris, 380 mM Glycine, 7 mM SDS) and transferred to PVDF membranes. All membranes were then blocked with blocking buffer (5% w/v milk powder, BioRad) in TBST (50 mM Tris (tris(hydroxymethylaminomethane), 150 mM NaCl, 0.05% (v/v) Tween 20, adjusted to pH 7.6) Proteins were probed with antibodies against phospho-AMPK (50081S, 1:2000, Cell Signaling Technologies), AMPK (5832S, 1:2000, Cell Signaling Technologies), PML (ab179466, 1:1000, abeam), PARP8 (NBP213733, 1:1000, Novus Biologicals), ATF2/7 (82870, 1:1000, Cell Signaling Technologies), alpha-Tubulin (ab7291, 1:1000, Abeam), phospho-UBTF (ab182583, 1:1000, abeam), UBTF (HPA006385, 1:1000, Sigma), RBM38 (AV40862, 1:1000, Sigma), or NUDT5 (ab129172, 1:1000, abeam), detected by HRP (horse-radish peroxidase) conjugated donkey anti-rabbit IgG antibody (Pierce) or donkey anti-mouse antibody IgG antibody (Pierce) and visualized with Clarity ECL Western Blotting substrate (BioRad), according to provided protocol.

[2] = biological target: T1, NUDT5; assay: CRBN knock-out experiment, NUDT5 degradation; format: cell-based; parameters: endogenous in cells; host or cells: HEK293 (also CRBN knock-out HEK293 for A13); conditions: CRBN knock-out HEK293 cells, 20 h
[3] = system: patient-derived fibroblast lines with MTHFD1 mutations; assay: adenosine toxicity in fibroblasts from MTHFD1 deficiency patients; format: cell-based; conditions: patient-derived cells
Description: Patient-derived fibroblast and control fibroblast lines were cultured in Minimum Essential Medium alpha media (MEMα, no nucleosides, Gibco), supplemented with 10% FBS and 1% P/S. These patient-derived fibroblast lines were previously characterized in Burda et al. 2015. For the experiments using dialyzed FBS, the dialyzed FBS was purchased from Gibco and added to IMDM at a final concentration of 10%. All the cell lines were incubated in 5% CO2 atmosphere at 37° C.

[4] = system: HAP1 cells; assay: untargeted global proteomics; format: cell-based, human; conditions: 100 nM, 6 and 24 h
Description: Proteomics samples were digested with trypsin using STrap columns following the manufacturer's protocol (C02-micro, ProtiFi). For untargeted global proteomics HAP1 cells were treated with DMSO or 100 nM dNUDT5 for 6 h or 24 h. Then, the cell pellets were collected and lysed in 5% SDS containing 1 μL/mL benzonase (E1014, Millipore) and subsequent short sonication to shear genomic DNA (1× 2 s pulse, 20% amplitude, microtip, Sonics Vibra Cell). 50 μg protein from the total cell lysate or 80% of the elution fraction of the chemical pulldown were first reduced by 20 mM dithiothreitol (M02712, Fluorochem), and alkylated by 40 mM iodoacetamide (I1149, Sigma). Phosphoric acid and S-Trap protein binding buffer were added into the sample lysates. Then, the SDS lysate/S-Trap buffer were loaded into a S-Trap column (C02-micro-80, ProtiFi). 1 μg of trypsin (V5111, Promega) was used to digest each sample at 37° C. for 20 h. The samples were then eluted and dried by vacuum centrifugation. […]
Raw data were searched against the human database (UP000005640, downloaded 08/21) using DIA-NN (Demichev et al. 2020 Nature Methods) by enabling FASTA digest for library free search and Deep learning-based spectra, RTs and IMs prediction. […] The protein groups matrix was further analysed using Perseus (1.6.2.1) or R studio (4.1.1). […] Proteins were removed if detected less than 2 times in each group. […]

[5] = biological target: T2, luciferase-tagged NUDT5 (Homo sapiens, UniProt Q9UKK9); assay: NanoBRET target engagement assay; format: cell-based; conditions: live cells, 2 h
T2 construct: expressed in transfected cells; host or cells: HEK293T
Description: For NanoBRET target engagement assay, intracellular TE Nano-Glo substrate/inhibitor (N2161, Promega) was used according to the manufacturer's instruction. In brief, 200,000 HEK293T cells/ml was seeded in a T-75 flask. N-terminal NanoLuciferse NUDT5 was reverse transfected into the cells using Fugene HD transfection reagent (E2312, Promega). After 24 h the transfected HEK293 (200,000 cells/ml) were replated onto a 384-well plate containing compounds. 2.5 nM NU008116a was used as the final tracer concentration. After 2 h, NanoLuc substrate and inhibitor was added into each well and the signals were measured by PHERAstar Microplate Reader.
Compounds were dispensed in the 384-well plates by using Echo Acoustic Dispenser.

[6] = system: WT HAP1 cells; assay: growth of WT HAP1 cells; format: cell-based; conditions: 72 h
Description: HAP1 (KBM7-derived, Horizon Discovery, C859), and HAP1 MTHFD1^KO, MTHFD1^K56R, and MTHFD1^K386E cell lines were cultured in Iscove's Modified Dulbecco's Medium (IMDM, Sigma), supplemented with 10% Fetal Bovine Serum (FBS, Sigma) and 1% Penicillin/Streptomycin (P/S, Sigma).
MTHFD1^KO cells in dialyzed FBS media were treated with a single nucleotide or folic acid metabolite for 72 hours. Cells were then stained with Hoechst, imaged, and counted using an Operetta (Perkin Elmer). For the AMPK activator studies, cells were stained with Hoechst, imaged, and counted using an Opera (Perkin Elmer). Similarly, MTHFD1^K56R cells in dialyzed FBS media were treated with adenosine for 72 hours. Cells were then stained with Hoechst, imaged, and counted using an Operetta (Perkin Elmer).

Structure (SMILES): Cn1c(=O)c2c(nc(N3CCN(C(=O)N4CCC(CN5CCN(c6ccc7c(c6)C(=O)N(C6CCC(=O)NC6=O)C7=O)CC5)CC4)CC3)n2Cc2nnc(-c3ccc(Cl)c(Cl)c3)o2)n(C)c1=O (stereo not drawn) [dNUDT5, 7-((5-(3,4-dichlorophenyl)-1,3,4-oxadiazol-2-yl)methyl)-8-(4-(4-((4-(2-(2,6-dioxopiperidin-3-yl)-1,3-dioxoisoindolin-5-yl)piperazin-1-yl)methyl)piperidine-1-carbonyl)piperazin-l-yl)-1,3-dimethyl-3,7-dihydro-1H-purine-2,6-dione]
- DC50 [1]: 0.3 nM
- dependence of degradation on E3 ligase [2]: E3-ligase-dependant
- effect on adenosine-mediated toxicity [3]: reverses adenosine-mediated toxicity
- proteome-wide specificity of degradation [4]: highly specific for NUDT5 with no other protein being degraded
- NUDT5 engagement / recruitment [5]: engaged their cognate target NUDT5 in live cells
- effect on viability of WT cells [6]: did not affect the viability of WT cells
